According to ChEMBL document CHEMBL1122462, “Potential antiatherosclerotic agents. 4. [(Functionalized-alkyl)amino]benzoic acid analogues of cetaben” (1983):

Columns and labels:
[1] = tested on: Rattus norvegicus; assay: In vivo Sterol lowering activity at dose as 0.10 % of the diet.; type: functional
[2] = molecular target: T1, Sterol O-acyltransferase 1 (Rattus norvegicus) (UniProt O70536); assay: In vitro inhibitory activity against acyl coenzyme A:cholesterol acyltransferase; set-up: concentration or dose not given beside the values; settings: concentration not given here
T1 sequence (whole entry): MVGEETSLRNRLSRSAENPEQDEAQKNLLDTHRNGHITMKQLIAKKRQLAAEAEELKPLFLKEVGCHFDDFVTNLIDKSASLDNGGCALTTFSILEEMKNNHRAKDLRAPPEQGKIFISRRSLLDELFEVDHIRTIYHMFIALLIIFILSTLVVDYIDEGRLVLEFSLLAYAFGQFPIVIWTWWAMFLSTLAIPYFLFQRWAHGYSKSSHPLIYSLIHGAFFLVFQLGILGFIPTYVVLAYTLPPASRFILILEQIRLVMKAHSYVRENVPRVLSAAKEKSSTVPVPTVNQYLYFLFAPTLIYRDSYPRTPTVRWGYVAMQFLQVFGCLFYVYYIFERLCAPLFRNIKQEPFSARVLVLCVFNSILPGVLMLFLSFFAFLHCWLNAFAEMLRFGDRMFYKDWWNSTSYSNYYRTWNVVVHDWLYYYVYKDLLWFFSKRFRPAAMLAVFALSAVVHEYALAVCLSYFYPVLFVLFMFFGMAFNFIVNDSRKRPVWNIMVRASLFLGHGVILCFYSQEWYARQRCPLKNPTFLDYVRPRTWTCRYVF

[3] = tested on: Rattus norvegicus; assay: In vivo Triglyceride lowering activity at dose as 0.10 % of the diet.; type: functional
[4] = tested on: Rattus norvegicus; assay: In vivo sterol lowering activity at dose of 0.10 % of the diet; type: functional
[5] = tested on: Rattus norvegicus; assay: In vivo Triglyceride lowering activity at a dose of 0.10 % of the diet; type: functional
[6] = tested on: Rattus norvegicus; assay: In vivo Sterol lowering activity at dose as 0.01% of the diet; type: functional
[7] = tested on: Rattus norvegicus; assay: In vivo sterol lowering activity, dosed as 0.03 % of the diet; type: functional
[8] = tested on: Rattus norvegicus; assay: In vivo Triglyceride lowering activity at dose as 0.01 % of the diet; type: functional
[9] = tested on: Rattus norvegicus; assay: In vivo Triglyceride lowering activity at dose as 0.03 % of the diet; type: functional

Structure (SMILES)	Diet [1]	inhibition [2]	Diet [3]	serum sterol level, % of control [4]	serum triglyceride level (% of control) [5]	serum sterol level, percent of control [6]	serum sterol level, percent of control [7]	serum triglyceride level (% of control) [8]	triglyceride lowering activity [9]
N#CCCCNc1ccc(C(=O)O)cc1	94%	8%	93%	–	–	–	–	–	–
CCOC(=O)c1ccc(N2CCCC2=O)cc1	–	6%	72%	84%	–	–	–	–	–
CCOC(=O)c1ccc(NCCC2CCCC2)cc1	96%	60%	–	–	69%	–	–	–	–
CCCCCCCCCCCCCCCCN(CC(=O)O)c1ccc(C(=O)O)cc1	–	15%	–	93%	99%	105%	109%	105%	100%
CCCCCCCCCCCCCCCCN(C(=O)CCC(=O)O)c1ccc(C(=O)O)cc1	–	13%	–	88%	117%	111%	105%	84%	90%
O=C(O)c1ccc(NCCCCCCCCCCCS)cc1	–	< 26%	–	<84%	<50%	92%	89%	<65%	<61%
CCSCCCCCCCCCCCCCCCCNc1ccc(C(=O)O)cc1	–	< 36%	–	88%	<59%	91%	91%	62%	<58%
CCCCCCCCCCC(C#N)CCCCCNc1ccc(C(=O)OCC)cc1 (centres undefined)	–	< 69%	–	87%	<51%	100%	97%	<66%	<69%
O=C(O)c1ccc(NCCCCCCCCCCCC2CCCCC2)cc1	–	< 56%	–	83%	<48%	95%	91%	73%	<51%
CCCCCCCCCCC(N)CCCCCNc1ccc(C(=O)OCC)cc1 (centres undefined)	–	0%	–	84%	<45%	97%	99%	68%	70%
CCOC(=O)c1ccc(NCCCCCCCCCCCCCCCC(=O)O)cc1	–	4%	–	106%	147%	100%	106%	99%	133%
O=C(O)c1ccc(NCCCCCCCCCCCSCc2ccccc2)cc1	–	< 54%	–	90%	<51%	99%	95%	<55%	<52%
O=C(CCCCCCCCCCOc1ccc(C(=O)O)cc1)Nc1ccc(C(=O)O)cc1	–	< 33%	–	100%	93%	100%	93%	116%	106%
CCOC(=O)c1ccc(NCC(F)(F)C(F)(F)C(F)(F)C(F)(F)C(F)(F)C(F)(F)C(F)(F)F)cc1	–	7%	–	<44%	<35%	<81%	<65%	<47%	<43%
CCCCCCCCCCCCCCC(C)Nc1ccc(C(=O)O)cc1 (centres undefined)	–	< 51%	–	<79%	<49%	114%	95%	79%	68%
CCCCCCCCCCC(C#N)CCCCCNc1ccc(C(=O)O)cc1 (centres undefined)	–	< 64%	–	83%	<50%	96%	<85%	75%	<66%
O=C(O)c1ccc(NCCCCCCCCCCCBr)cc1	–	8%	–	100%	<55%	99%	<86%	78%	<65%
CCCCCCCCCCCCCCCCNc1ccc(C(=O)O)cc1 [CETABEN]	–	< 57%	–	<54%	<31%	<72%	<71%	<71%	<45%
O=C(O)c1ccc(NCCCCCCCCCCCOc2ccc(C(=O)O)cc2)cc1	–	< 36%	–	103%	91%	103%	91%	90%	79%
CCOC(=O)c1ccc(NCCCCCCCCCCCCCCC(C)(C)C)cc1	–	5%	–	<68%	<44%	<69%	<78%	79%	<71%
O=C(O)c1ccc(NCCCCCCCCCCC(F)(F)F)cc1	–	22%	–	<69%	<56%	92%	<80%	<57%	<57%
CCCCCCCCCCC(=O)CCCCCNc1ccc(C(=O)OCC)cc1	–	< 19%	–	107%	81%	109%	104%	103%	86%
CCCCCCCCCCCCCCC(C)Nc1ccc(C(=O)OCC)cc1 (centres undefined)	–	< 18%	–	93%	<55%	107%	100%	81%	<55%
